The record followed here is patent publication US8546579B2, “Bicycloheteroaryl compounds as P2X7 modulators and uses thereof” (Evotec (US) Inc., priority 2006, dated 2013).

Like-named read-outs stand apart in the source and are kept apart here.

The target of this experiment is T1, P2X7 receptor (Homo sapiens, UniProt Q99572).
T1 construct: host or cells: THP-1 cells differentiated with LPS and IFN-γ
T1 sequence (Q99572 1-595): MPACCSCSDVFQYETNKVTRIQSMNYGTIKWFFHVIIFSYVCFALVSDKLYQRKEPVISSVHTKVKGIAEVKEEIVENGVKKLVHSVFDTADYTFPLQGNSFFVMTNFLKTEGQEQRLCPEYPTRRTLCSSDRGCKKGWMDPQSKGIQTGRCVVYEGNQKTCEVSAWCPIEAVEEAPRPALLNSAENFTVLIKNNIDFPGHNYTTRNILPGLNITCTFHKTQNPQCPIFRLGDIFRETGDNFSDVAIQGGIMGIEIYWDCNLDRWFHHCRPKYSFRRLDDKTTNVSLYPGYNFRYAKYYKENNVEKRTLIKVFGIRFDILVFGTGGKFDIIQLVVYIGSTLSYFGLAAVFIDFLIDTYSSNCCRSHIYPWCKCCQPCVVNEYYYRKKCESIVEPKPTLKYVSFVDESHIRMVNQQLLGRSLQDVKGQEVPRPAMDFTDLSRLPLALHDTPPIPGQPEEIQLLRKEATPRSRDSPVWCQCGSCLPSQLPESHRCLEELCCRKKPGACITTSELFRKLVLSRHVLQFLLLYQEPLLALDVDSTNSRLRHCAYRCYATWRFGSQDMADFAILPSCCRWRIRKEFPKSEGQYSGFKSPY
The experiment in a line: IL-1β release assay in differentiated THP-1 cells stimulated with BzATP (Example 9). The experiment is classed as cell-based. Particulars: for inhibition at 0.3 µM: 0.3 μM compound, read-out: IL-1β % Inhib. @ 0.3 μM; for inhibition at 0.3 µM / inhibition at 0.1 µM: differentiated THP-1 cells, BzATP 250 uM; for inhibition: THP-1, read-out: IL-1β % Inhib.; for IC50: THP-1 cells, BzATP-stimulated IL-1β release, four parameter logistic fit; for inhibition at 0.1 µM: 0.1 μM compound. Further details: inhibition: dose or concentration left out as unconfirmed. The method, boiled down: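 THP-1 cells differentiated 16 h with LPS and IFN-γ (100 ng/mL each), re-primed 2 h with LPS, then compound-pretreated 30 min before 250 uM BzATP for 45 min. Supernatant IL-1β quantified by ELISA; background-adjusted percent inhibition fitted to four-parameter logistic for IC50.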

The mark [1] stands for this setting: symbols * to ****, read-out: IL-1β % Inhib. (asterisk symbols: at 0.1 μM).
Setting [2] is: '*' class symbols, read-out: IL-1β % Inhib. (asterisk classes, 0.1 μM).

In the case of `COCCn1ccc2c(NC(=O)c3ccccc3C)cccc2c1=O` [Compound 1310], where the note is “symbols + to ++++”, the inhibition at 0.3 µM was 0 to 25%.
Same read-out and setting: to `COc1ccc(CC(=O)Nc2cccc3c(=O)n(CC(C)(C)C)ccc23)cc1` [Compound 1260] belongs 0 to 25%.
As to `CCOc1cccc(C(=O)Nc2cccc3c(=O)n(CC(C)(C)C)ccc23)c1` [Compound 1053], under “'+' class symbols”, the inhibition at 0.3 µM was in the range of 0 to 25%.
For the compound `Cc1ccccc1CC(=O)Nc1cccc2c(=O)n(CC(C)(C)C)ccc12` [Compound 1256], the inhibition at 0.3 µM (symbols + to ++++) lay in the range of 0 to 25%.
On the same count and under the same terms, the value for `Cc1ccc(Cl)cc1C(=O)Nc1cccc2c(=O)n(Cc3cccnc3)ccc12` [Compound 1368] was 0 to 25%.
Take `COCCn1ccc2c(NC(=O)Cc3cccc(OC)c3)cccc2c1=O` [Compound 1439]: the inhibition is 0 to 25%.
Turning to `COc1ccc(CC(=O)Nc2cccc3c(=O)n(C)ccc23)cc1` [Compound 1299], under “symbols + to ++++”, the inhibition at 0.3 µM is 0 to 25%.
Take `COc1cc(OC)cc(C(=O)Nc2cccc3c(=O)n(CC4CCOCC4)ccc23)c1` [Compound 1089]: where the note is “'+' class symbols”, the inhibition at 0.3 µM lay in the range of 0 to 25%.
Consider `CC(=O)OCCn1ccc2c(NC(=O)Cc3ccc(Cl)c(Cl)c3)cccc2c1=O` [Compound 1023], for which the IC50 was 53.5 nM. Moreover, the inhibition at 0.3 µM ('+' class symbols) is not below 76%.
For the compound `COc1ccc(C(=O)Nc2cccc3c(=O)n(CC4CCOCC4)ccc23)c(C)c1` [Compound 1394], the inhibition at 0.1 µM under setting [1] was 0 to 25%.
As for `COCCn1ccc2c(NC(=O)Cc3cccc(C)c3)cccc2c1=O` [Compound 1315], the inhibition at 0.3 µM (symbols + to ++++) lay in the range of 0 to 25%.
For `CN(C)CCn1ccc2c(NC(=O)c3ccccc3Cl)cccc2c1=O` [Compound 1137], where the note is “'+' class symbols”, the inhibition at 0.3 µM lay within 0 to 25%.
Same read-out and setting: the value for `O=C(Nc1cccc2c(=O)n(CC3CCOCC3)ccc12)c1cccc2ccccc12` [Compound 1096] was 0 to 25%.
`CC(c1ccccn1)n1ccc2c(NC(=O)Cc3ccc(C(F)(F)F)c(F)c3)cccc2c1=O` (stereo not shown) [Compound 1635] returned an IC50 of 112 nM. The inhibition at 0.3 µM ("+" class symbols) is not below 76%.
Consider `CC(C)(C)c1ccc(C(=O)Nc2cccc3c(=O)n(CC4CCOCC4)ccc23)cc1` [Compound 1092], for which the inhibition at 0.3 µM ('+' class symbols) lay within 0 to 25%.
As for `COCCn1ccc2c(NC(=O)Cc3cc(C)cc(C)c3)cccc2c1=O` [Compound 1331], the inhibition at 0.3 µM (symbols + to ++++) fell in the range of 0 to 25%.
`CCOc1cccc(C(=O)Nc2cccc3c(=O)n(CC4CCOCC4)ccc23)c1` [Compound 1030]: under “'+' class symbols”, the inhibition at 0.3 µM lay in the range of 0 to 25%.
In the case of `COc1ccc(C(=O)Nc2cccc3c(=O)n(CCCN4CCCC4=O)ccc23)c(C)c1` [Compound 1493], the inhibition fell in the range of 0 to 25%.
Still for that read-out and setting: to `O=C(Nc1cccc2c(=O)n(CC3CCOCC3)ccc12)c1ccc(-c2ccccc2)cc1` [Compound 1408] belongs 0 to 25%.
For `CC(C(=O)Nc1cccc2c(=O)n(Cc3ccc(OC(F)(F)F)cc3)ccc12)c1ccccc1` (stereo not shown) [Compound 1570], the inhibition was 0 to 25%.
Same read-out and setting: the value for `COc1ccc(C(=O)Nc2cccc3c(=O)n(CCCN4CCCC4=O)ccc23)cc1Cl` [Compound 1500] was 0 to 25%.
`Cc1ccc(CC(=O)Nc2cccc3c(=O)n(CCN4CCOCC4)ccc23)cc1` [Compound 1214]: the inhibition at 0.3 µM (symbols + to ++++) was 0 to 25%.
Still for that read-out and setting: the value for `O=C(Nc1cccc2c(=O)n(CCN3CCOCC3)ccc12)c1cc2ccccc2o1` [Compound 1216] was 0 to 25%.
Regarding `COc1ccc(C(=O)Nc2cccc3c(=O)n(CC4CCN(C)CC4)ccc23)cc1C` [Compound 1490], the inhibition was in the range of 0 to 25%.
For the compound `COc1ccc(C(=O)Nc2cccc3c(=O)n(CCN4CCOCC4)ccc23)cc1Cl` [Compound 1043], the inhibition at 0.3 µM ('+' class symbols) fell in the range of 0 to 25%.
`CN(C)CCn1ccc2c(NC(=O)Cc3csc4ccccc34)cccc2c1=O` [Compound 1171]: the inhibition at 0.3 µM ('+' class symbols) lay within 0 to 25%.
Turning to `COc1ccccc1CCC(=O)Nc1cccc2c(=O)n(Cc3cccnc3)ccc12` [Compound 1348], the inhibition at 0.1 µM under setting [1] fell in the range of 0 to 25%.
In the case of `COc1ccccc1CC(=O)Nc1cccc2c(=O)n(CC3CCOCC3)ccc12` [Compound 1099], for the setting “'+' class symbols”, the inhibition at 0.3 µM lay within 0 to 25%.
With `COCCn1ccc2c(NC(=O)Cc3ccc(OC)cc3OC)cccc2c1=O` [Compound 1333], where the note is “symbols + to ++++”, the inhibition at 0.3 µM lay in the range of 0 to 25%.
`COc1ccc(CCC(=O)Nc2cccc3c(=O)n(Cc4ccc(OC(F)(F)F)cc4)ccc23)cc1` [Compound 1572]: the inhibition was in the range of 0 to 25%.
Same read-out and setting: the value for `COc1ccc(CC(=O)Nc2cccc3c(=O)n(CC4CCN(C)CC4)ccc23)cc1` [Compound 1474] was 0 to 25%.
As to `CN(C)CCn1ccc2c(NC(=O)[C@@]34C[C@@H]5C[C@@H](C[C@@H]3C5)C4)cccc2c1=O` [Compound 1168], the inhibition at 0.3 µM ('+' class symbols) was 0 to 25%.
In the case of `Cc1cccc(C(=O)Nc2cccc3c(=O)n(CCN4CCOCC4)ccc23)c1Cl` [Compound 1239], the inhibition at 0.3 µM (symbols + to ++++) was 0 to 25%.
`CCOc1ccc(C(=O)Nc2cccc3c(=O)n(CC4CCOCC4)ccc23)c(O)c1` [Compound 1025]: under “'+' class symbols”, the inhibition at 0.3 µM is 0 to 25%.
`O=C(Nc1cccc2c(=O)n(CCN3CCOCC3)ccc12)c1cc(Cl)cc(Cl)c1` [Compound 1195]: the inhibition at 0.1 µM under setting [2] was in the range of 0 to 25%.
With `CCOc1cccc(C(=O)Nc2cccc3c(=O)n(Cc4ccc(OC(F)(F)F)cc4)ccc23)c1` [Compound 1556], the inhibition lay in the range of 0 to 25%.
On to `COc1ccc(CC(=O)Nc2cccc3c(=O)n(CC(C)(C)C)ccc23)cc1C` [Compound 1281], for which, under “symbols + to ++++”, the inhibition at 0.3 µM was in the range of 26 to 50%.
On to `O=C(Nc1cccc2c(=O)n(CCN3CCOCC3)ccc12)c1cccc2ccccc12` [Compound 1410], for which the inhibition was in the range of 0 to 25%.
Same read-out and setting: to `O=C(Cc1ccccc1F)Nc1cccc2c(=O)n(Cc3ccc(OC(F)(F)F)cc3)ccc12` [Compound 1575] belongs 0 to 25%; to `COc1ccc(C(=O)Nc2cccc3c(=O)n(CCCN4CCCC4=O)ccc23)cc1C` [Compound 1545], 0 to 25%.
Take `COCCn1ccc2c(NC(=O)c3cc(C)c(OC)c(C)c3)cccc2c1=O` [Compound 1323]: the inhibition at 0.3 µM (symbols + to ++++) fell in the range of 0 to 25%.
Same read-out and setting: the value for `Cn1ccc2c(NC(=O)c3cc4cc(Cl)ccc4o3)cccc2c1=O` [Compound 1308] was 0 to 25%.
`O=C(Cc1cccc2ccccc12)Nc1cccc2c(=O)n(Cc3cccnc3)ccc12` [Compound 1350]: under setting [1], the inhibition at 0.1 µM fell in the range of 0 to 25%.
As to `Cc1ccccc1CCC(=O)Nc1cccc2c(=O)n(C)ccc12` [Compound 1057], under setting [2], the inhibition at 0.1 µM was 0 to 25%.
Consider `COc1cccc(CCC(=O)Nc2cccc3c(=O)n(CCCN4CCCC4=O)ccc23)c1` [Compound 1497], for which the inhibition is 26 to 50%.
Consider `Cc1ccc(Cl)cc1C(=O)Nc1cccc2c(=O)n(CC3CCOCC3)ccc12` [Compound 1129], for which the inhibition at 0.3 µM ('+' class symbols) lay within 0 to 25%.
As for `O=C(Cc1csc2ccccc12)Nc1cccc2c(=O)n(CC3CCOCC3)ccc12` [Compound 1119], the inhibition at 0.3 µM ('+' class symbols) is 0 to 25%.
As to `CC(C(N)=O)n1ccc2c(NC(=O)C3COc4cc(C(C)(C)C)ccc4O3)cccc2c1=O` (stereo not shown) [Compound 1622], the IC50 was more than 1000 nM. In addition, the inhibition at 0.3 µM ("+" class symbols) fell in the range of 0 to 25%.
As for `COc1ccc(C(=O)Nc2cccc3c(=O)n(CC4CCN(C)CC4)ccc23)c(C)c1` [Compound 1456], the inhibition lay within 0 to 25%.
As to `Cc1cccc(CCC(=O)Nc2cccc3c(=O)n(CCN4CCOCC4)ccc23)c1` [Compound 1237], under “symbols + to ++++”, the inhibition at 0.3 µM is 26 to 50%.
On the same count and under the same terms, the value for `COCCn1ccc2c(NC(=O)[C@@]34C[C@@H]5C[C@@H](C[C@@H]3C5)C4)cccc2c1=O` [Compound 1327] was 0 to 25%.
Turning to `Cc1c(Cl)cccc1C(=O)Nc1cccc2c(=O)n(CCN(C)C)ccc12` [Compound 1172], the inhibition at 0.3 µM ('+' class symbols) was in the range of 0 to 25%.
Consider `COc1cccc(CC(=O)Nc2cccc3c(=O)n(CCN4CCOCC4)ccc23)c1` [Compound 1209], for which the inhibition at 0.3 µM (symbols + to ++++) was 0 to 25%.
For `Cc1ccccc1CCC(=O)Nc1cccc2c(=O)n(CC(C)(C)C)ccc12` [Compound 1048], the inhibition at 0.1 µM under setting [2] was in the range of 0 to 25%.
For `COc1cc(CC(=O)Nc2cccc3c(=O)n(Cc4ccc(OC(F)(F)F)cc4)ccc23)cc(OC)c1` [Compound 1589], the inhibition lay within 0 to 25%.
With `COc1cccc(CC(=O)Nc2cccc3c(=O)n(CC4CCOCC4)ccc23)c1` [Compound 1102], for the setting “'+' class symbols”, the inhibition at 0.3 µM was 0 to 25%.
Consider `O=C(Nc1cccc2c(=O)n(CCCN3CCCC3=O)ccc12)c1cc2ccccc2o1` [Compound 1526], for which the inhibition was 0 to 25%.
In the case of `COc1ccccc1CCC(=O)Nc1cccc2c(=O)n(CC(C)(C)C)ccc12` [Compound 1248], the inhibition at 0.3 µM (symbols + to ++++) was 0 to 25%.
